Read-outs that look alike come from different tables or passages of the source.
Legend:
[1] = tested on: A2780 ovarian cancer cells; test: Cellular proliferation in A2780 cells, Cell Titer Glo (Biological Method 4); assay type: cell-based; settings: Homo sapiens
Outline: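 Viability after 72 h compound exposure (37 °C, 5% CO2) was read by Cell Titer Glo and an EC50 derived, each condition in duplicate. A2780 ovarian cells had been plated at 1,000 per well in DMEM/10% FBS at least 2 h beforehand.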

PI3 kinase alpha = PI3 kinase alpha (Homo sapiens, UniProt P42336); test: PI3K ATP depletion assay (Biological Method 1, Assay 3; KinaseGlo luminescence); assay type: biochemical; settings: ATP depletion assay, read-out: PI3 Kinase Alpha, IC50
Chain of PI3 kinase alpha (P42336 whole entry): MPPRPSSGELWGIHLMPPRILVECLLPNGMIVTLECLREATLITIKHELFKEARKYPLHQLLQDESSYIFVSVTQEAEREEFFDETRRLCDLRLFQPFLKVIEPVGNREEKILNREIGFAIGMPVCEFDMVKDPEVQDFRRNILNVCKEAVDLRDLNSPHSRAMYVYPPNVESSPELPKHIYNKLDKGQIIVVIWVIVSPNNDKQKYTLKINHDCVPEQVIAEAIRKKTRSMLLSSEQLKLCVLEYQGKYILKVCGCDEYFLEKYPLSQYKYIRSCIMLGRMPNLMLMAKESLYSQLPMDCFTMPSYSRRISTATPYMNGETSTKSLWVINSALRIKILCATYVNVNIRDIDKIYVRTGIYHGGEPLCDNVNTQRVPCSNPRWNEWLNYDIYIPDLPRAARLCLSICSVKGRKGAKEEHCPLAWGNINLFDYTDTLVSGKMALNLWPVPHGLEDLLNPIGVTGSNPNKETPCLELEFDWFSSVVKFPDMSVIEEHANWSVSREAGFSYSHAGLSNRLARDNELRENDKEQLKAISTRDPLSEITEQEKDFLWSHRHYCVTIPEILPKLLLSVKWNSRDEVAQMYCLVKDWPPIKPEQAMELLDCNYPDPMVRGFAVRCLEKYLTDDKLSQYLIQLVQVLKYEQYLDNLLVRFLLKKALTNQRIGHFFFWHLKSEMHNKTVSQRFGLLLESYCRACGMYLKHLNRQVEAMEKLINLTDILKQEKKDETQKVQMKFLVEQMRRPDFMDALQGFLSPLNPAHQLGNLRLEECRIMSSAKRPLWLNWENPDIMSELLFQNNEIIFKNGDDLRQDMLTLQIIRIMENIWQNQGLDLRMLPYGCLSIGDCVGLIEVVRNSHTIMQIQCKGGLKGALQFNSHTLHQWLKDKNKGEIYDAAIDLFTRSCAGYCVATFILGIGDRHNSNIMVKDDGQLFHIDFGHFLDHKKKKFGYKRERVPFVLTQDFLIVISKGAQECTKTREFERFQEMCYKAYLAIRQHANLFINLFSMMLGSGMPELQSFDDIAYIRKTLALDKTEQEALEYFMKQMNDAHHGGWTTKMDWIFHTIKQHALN
Chain of PI3 kinase alpha (P27986 whole entry partner): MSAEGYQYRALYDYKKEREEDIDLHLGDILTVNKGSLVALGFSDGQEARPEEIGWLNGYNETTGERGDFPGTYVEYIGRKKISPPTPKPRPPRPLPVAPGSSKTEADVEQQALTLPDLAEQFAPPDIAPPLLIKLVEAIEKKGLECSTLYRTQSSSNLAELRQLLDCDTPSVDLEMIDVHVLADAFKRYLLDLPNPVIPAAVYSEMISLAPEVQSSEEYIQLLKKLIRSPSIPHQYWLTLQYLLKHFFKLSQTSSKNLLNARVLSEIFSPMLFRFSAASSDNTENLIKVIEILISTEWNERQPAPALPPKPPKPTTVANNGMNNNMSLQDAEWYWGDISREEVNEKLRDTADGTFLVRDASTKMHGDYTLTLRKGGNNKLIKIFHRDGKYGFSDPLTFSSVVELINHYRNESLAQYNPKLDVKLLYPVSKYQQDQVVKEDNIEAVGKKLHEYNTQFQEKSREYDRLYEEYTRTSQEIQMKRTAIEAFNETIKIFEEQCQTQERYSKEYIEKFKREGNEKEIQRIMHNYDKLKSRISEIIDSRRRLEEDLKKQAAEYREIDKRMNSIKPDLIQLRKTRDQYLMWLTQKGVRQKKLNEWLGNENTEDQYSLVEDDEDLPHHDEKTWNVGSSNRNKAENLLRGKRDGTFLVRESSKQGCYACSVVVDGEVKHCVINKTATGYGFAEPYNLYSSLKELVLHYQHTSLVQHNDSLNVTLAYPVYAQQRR
Outline: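 Compound in DMSO was mixed with 10 nM PI3 kinase and 5 μg/mL phosphatidylinositol, and the reaction was started with 2 μM ATP. It ran to about 50% ATP depletion and was stopped with KinaseGlo.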

[2] = tested on: pSer473 Akt in A2780 cells; test: pSer473 Akt assay to monitor PI3K pathway in A2780 cells (Biological Method 2, MSD); assay type: cell-based; settings: Homo sapiens, inhibition of Akt phosphorylation
Experimental: In this method, an assay for measuring the PI3K-mediated pSer473-Akt status after treatment with representative inhibitor compounds of the invention is described.
A2780 cells were cultured in DMEM supplemented with 10% FBS. L-glutamine, sodium pyruvate, and antibiotics. Cells were plated in the same medium at a density of 15,000 cells per well into 96 well tissue culture plates, with outside wells vacant, and allowed to adhere overnight.
Test compounds supplied in DMSO were diluted further into DMSO at 500 times the desired final concentrations before dilution into culture media to 2 times the final concentrations. Equal volumes of 2× compounds were added to the cells in 96 well plates and incubated at 37° C. for one hour. The media and compounds were then removed, the plates chilled and cells lysed in a lysis buffer (150 mM NaCl, 20 mM Tris pH 7.5, 1 mM EDTA, 1 mM EGTA, 1% Triton X-100) supplemented with phosphatase and protease inhibitors. After thorough mixing, lysates were transferred to both pSer473Akt and total Akt assay plates from Meso Scale Discovery (MSD), and incubated overnight with shaking at 4° C.
The assays were read on a SECTOR Imager 6000 instrument (Meso Scale Discovery). Ratios of the signal from pSer473Akt and total Akt assays were used to correct for any variability and the percent inhibition of pSer473Akt from the total signal seen in cells treated with compound versus DMSO alone was calculated and used to determine EC50 values for each compound.

[3] = ovarian cancer cell line A2780, Biological Method 4

Row | Structure (SMILES) | EC50 ([1]; ovarian cancer cell line A2780) [nM] | IC50 (PI3 kinase alpha) [nM] | EC50 ([2]; A2780 cells) [nM] | EC50 [1, 3] [nM] | IC50 (PI3 kinase alpha; Biological Method 1) [nM] | EC50 ([2]; A2780, Biological Method 2) [nM] | EC50 ([2]; A2780) [nM]
1 | Nc1cc(C(F)(F)F)c(-c2cc(OC3CCN(C(=O)c4ccccc4)CC3)nc(N3CCOCC3)n2)cn1 [Compound 83] | < 10000 | < 1000 | < 1000 |  |  |  | 
2 | Nc1ncc(-c2cc(Nc3ccc(F)cc3)nc(N3CCOCC3)n2)cn1 [Compound 123] | < 10000 | < 1000 | < 1000 |  |  |  | 
3 | NC(=O)c1ccc(Nc2cc(-c3ccc(N)nc3)nc(N3CCOCC3)n2)cc1 [Compound 197] | < 10000 | < 1000 | < 1000 |  |  |  | 
4 | COc1nc(N)ncc1-c1cc(Nc2cnc3ccccc3c2)nc(N2CCOCC2)n1 [Compound 161] | < 1000 | < 1000 | < 1000 |  |  |  | 
5 | Nc1ccc(-c2cc(Nc3ccc4ncccc4c3)nc(N3CCOCC3)n2)cn1 [Compound 82] | < 1000 | < 1000 | < 1000 |  |  |  | 
6 | CC(=O)N1CCC(Oc2cc(-c3cnc(N)nc3C(F)(F)F)nc(N3CCOCC3)n2)CC1 [Compound 119] | < 1000 | < 1000 | < 1000 |  |  |  | 
7 | Nc1ncc(-c2cc(-c3cnc(N)nc3C(F)(F)F)nc(N3CCOCC3)n2)c(C(F)(F)F)n1 [Compound 121] | < 1000 | < 1000 | < 1000 |  |  |  | 
8 | CS(=O)(=O)c1cccc(-c2cc(-c3cnc(N)nc3C(F)(F)F)nc(N3CCOCC3)n2)c1 [Compound 143] | < 1000 | < 1000 | < 1000 |  |  |  | 
9 | Nc1ncc(-c2cc(Oc3cccnc3)nc(N3CCOCC3)n2)cn1 [Compound 8] | < 1000 | < 1000 | < 1000 |  |  |  | 
10 | CS(=O)(=O)N1CCC(Oc2cc(-c3cnc(N)nc3C(F)(F)F)nc(N3CCOCC3)n2)CC1 [Compound 74] | < 1000 | < 1000 | < 1000 |  |  |  | 
11 | COc1ccnc(Nc2cc(-c3ccc(N)nc3)nc(N3CCOCC3)n2)c1 [Compound 148] | < 25000 | < 1000 | < 1000 |  |  |  | 
12 | COc1ccc2ncc(Nc3nc(N4CCOCC4)nc(-c4cnc(N)nc4)c3C)cc2c1 [Compound 177] | < 1000 | < 1000 | < 1000 |  |  |  | 
13 | CC(C)N1CCC(Oc2cncc(-c3cc(-c4cnc(N)cc4C(F)(F)F)nc(N4CCOCC4)n3)c2)CC1 [Compound 79] | < 10000 | < 1000 | < 1000 |  |  |  | 
14 | CC(C)OC(=O)N1CCC(Oc2cc(-c3cnc(N)nc3C(F)(F)F)nc(N3CCOCC3)n2)CC1 [Compound 115] | < 10000 | < 1000 | < 1000 |  |  |  | 
15 | Nc1ncc(-c2cc(OC3CCN(C(=O)OCc4ccccc4)CC3)nc(N3CCOCC3)n2)c(C(F)(F)F)n1 [Compound 176] | < 10000 | < 1000 | < 1000 |  |  |  | 
16 | CS(=O)(=O)N1CCC(Oc2cc(-c3cnc(N)nc3N)nc(N3CCOCC3)n2)CC1 [Compound 120] | < 10000 | < 1000 | < 1000 |  |  |  | 
17 | CC(C)C(=O)N1CCC[C@H](Oc2cc(-c3cnc(N)nc3N)nc(N3CCOCC3)n2)C1 [Compound 72] | < 10000 | < 1000 | < 1000 |  |  |  | 
18 | CN1CCC(Oc2ccc(Nc3cc(-c4cnc(N)cc4C(F)(F)F)nc(N4CCOCC4)n3)cn2)CC1 [Compound 116] | < 10000 | < 1000 | < 1000 |  |  |  | 
19 | Nc1ncc(-c2cc(Nc3ccc(N4CCNCC4)nc3)nc(N3CCOCC3)n2)cn1 [Compound 9] | < 1000 | < 1000 | < 1000 |  |  |  | 
20 | CS(=O)(=O)c1cccc(-c2cc(-c3cnc(N)[nH]c3=O)nc(N3CCOCC3)n2)c1 [Compound 105] | < 1000 | < 1000 | < 1000 |  |  |  | 
21 | Cc1cc(Nc2cc(-c3cnc(N)cc3C(F)(F)F)nc(N3CCOCC3)n2)ccn1 [Compound 110] | < 1000 | < 1000 | < 1000 |  |  |  | 
22 | CC(C)N1CCC(Oc2ccc(Nc3cc(-c4cnc(N)cc4C(F)(F)F)nc(N4CCOCC4)n3)cn2)C1 (stereo not drawn) [Compound 93] | < 1000 | < 1000 | < 1000 |  |  |  | 
23 | COc1ccc2ncc(Nc3cc(-c4ccc(N)nc4)nc(N4CCOCC4)n3)cc2c1 [Compound 211] |  |  |  | < 1000 | < 1000 | < 10000 | 
24 | CC(C)C(=O)N1CCC[C@@H](Oc2cc(-c3cnc(N)nc3N)nc(N3CCOCC3)n2)C1 [Compound 137] | < 10000 | < 1000 | < 1000 |  |  |  | 

Row | Structure (SMILES) | EC50 ([1]; ovarian cancer cell line A2780) [nM] | IC50 (PI3 kinase alpha) [nM] | EC50 ([2]; A2780 cells) [nM] | EC50 [1, 3] [nM] | IC50 (PI3 kinase alpha; Biological Method 1) [nM] | EC50 ([2]; A2780, Biological Method 2) [nM] | EC50 ([2]; A2780) [nM]
25 | CS(=O)(=O)Nc1ncccc1-c1cc(-c2cnc(N)nc2C(F)(F)F)nc(N2CCOCC2)n1 [Compound 69] | < 1000 | < 1000 | < 1000 |  |  |  | 
26 | Nc1ncc(-c2cc(Nc3ccc4cn[nH]c4c3)nc(N3CCOCC3)n2)cn1 [Compound 135] | < 1000 | < 1000 | < 1000 |  |  |  | 
27 | COc1cccc2ncc(Nc3cc(-c4cnc(N)nc4)nc(N4CCOCC4)n3)cc12 [Compound 7] | < 1000 | < 1000 | < 1000 |  |  |  | 
28 | CCN(CC)Cc1cnc(Nc2cc(-c3cnc(N)nc3N)nc(N3CCOCC3)n2)s1 [Compound 59] | < 1000 | < 1000 | < 1000 |  |  |  | 
29 | CC(C)(C)OC(=O)N1CCC(Oc2cc(-c3cnc(N)nc3N)nc(N3CCOCC3)n2)CC1 [Compound 28] | < 1000 | < 1000 | < 1000 |  |  |  | 
30 | Nc1ncc(-c2cc(Nc3ccc(Oc4cccnc4)nc3)nc(N3CCOCC3)n2)cn1 [Compound 64] | < 1000 | < 1000 | < 1000 |  |  |  | 
31 | N#Cc1ccnc(Nc2cc(-c3ccc(N)nc3)nc(N3CCOCC3)n2)c1 [Compound 152] | < 10000 | < 1000 | < 1000 |  |  |  | 
32 | Nc1ncc(-c2cc(OC3CCN(C(=O)OCc4ccccc4)CC3)nc(N3CCOCC3)n2)c(=O)[nH]1 [Compound 34] | < 1000 | < 1000 | < 1000 |  |  |  | 
33 | COc1ccc2ncc(Nc3cc(-c4cnc(N)nc4)nc(N4CCOCC4)n3)cc2c1 [Compound 206] |  |  |  | < 1000 | < 1000 | < 1000 | 
34 | CC(=O)N1CCC(Oc2cc(-c3cnc(N)nc3N)nc(N3CCOCC3)n2)CC1 [Compound 99] | < 1000 | < 1000 | < 1000 |  |  |  | 
35 | CC(C)N1CCC(Oc2ccc(Nc3cc(-c4cnc(N)cc4C(F)(F)F)nc(N4CCOCC4)n3)cc2)CC1 [Compound 552] | < 10000 | < 1000 |  |  |  |  | < 1000
36 | Nc1ccc(-c2cc(Nc3ccccc3N3CCOCC3)nc(N3CCOCC3)n2)cn1 [Compound 180] | < 10000 | < 1000 | < 1000 |  |  |  | 
37 | CS(=O)(=O)c1ccc(Nc2cc(-c3cnc(N)cc3C(F)(F)F)nc(N3CCOCC3)n2)cc1 [Compound 173] | < 10000 | < 1000 | < 1000 |  |  |  | 
38 | Nc1ncc(-c2cc(OC3CCN(C(=O)OC4CCCC4)CC3)nc(N3CCOCC3)n2)c(=O)[nH]1 [Compound 47] | < 1000 | < 1000 | < 1000 |  |  |  | 
39 | Nc1ncc(-c2cc(Nc3ccc4nccnc4c3)nc(N3CCOCC3)n2)cn1 [Compound 38] | < 1000 | < 1000 | < 1000 |  |  |  | 
40 | Cn1cnnc1-c1cccc(Nc2cc(-c3cnc(N)cc3C(F)(F)F)nc(N3CCOCC3)n2)c1 [Compound 171] | < 1000 | < 1000 | < 1000 |  |  |  | 
41 | Nc1cc(C(F)(F)F)c(-c2cc(N3CCOCC3Cc3ccccc3)nc(N3CCOCC3)n2)cn1 (stereo not drawn) [Compound 113] | < 10000 | < 1000 | < 1000 |  |  |  | 
42 | CS(=O)(=O)Nc1ncccc1-c1cc(-c2cnc(N)cc2Cl)nc(N2CCOCC2)n1 [Compound 170] | < 1000 | < 1000 | < 1000 |  |  |  | 
43 | CN1CCC(Oc2ccc(Nc3cc(-c4cnc(N)nc4)nc(N4CCOCC4)n3)cn2)C1 (stereo not drawn) [Compound 35] | < 1000 | < 1000 | < 1000 |  |  |  | 
44 | CS(=O)(=O)c1cccc(-c2cc(-c3cnc(N)cc3C(F)(F)F)nc(N3CCOCC3)n2)c1 [Compound 95] | < 1000 | < 1000 | < 1000 |  |  |  | 
45 | Cc1cc(N)ncc1-c1cc(Nc2cnc3ccccc3c2)nc(N2CCOCC2)n1 [Compound 201] |  |  |  | < 1000 | < 1000 | < 1000 | 
46 | Nc1ncc(-c2cc(OC3CCN(C(=O)c4ccccc4)CC3)nc(N3CCOCC3)n2)c(N)n1 [Compound 122] | < 1000 | < 1000 | < 1000 |  |  |  | 
47 | Nc1ncc(-c2cc(Nc3ccncc3)nc(N3CCOCC3)n2)c(C(F)(F)F)n1 [Compound 33] | < 1000 | < 1000 | < 1000 |  |  |  | 
48 | CS(=O)(=O)Nc1ccccc1-c1cc(-c2cnc(N)cc2C(F)(F)F)nc(N2CCOCC2)n1 [Compound 159] | < 10000 | < 1000 | < 1000 |  |  |  | 
